Assay results as given in article PMC2990605 (British Journal of Cancer, 2010).

Test: Adverse events (CTCAEv3.0), worst grade per patient regardless of relation, and laboratory parameters
Format: in vivo
Conditions: human, in vivo
Description: Toxicity was evaluated according to common toxicity criteria for adverse events (CTCAEv3.0). The MTD was defined as the dose level(s) at which at least two out of six patients developed DLT.
Toxicity assessment, haematology and clinical biochemistry were performed at baseline and weekly during the study. Physical and ECOG performance status were recorded at baseline and before the next cycle.

## CC(C)C[C@@H](C(=O)N[C@H](C(=O)OC1CCCC1)c1ccccc1)[C@H](O)C(=O)NO [tosedostat]
  Pollakiuria, patients with events, %: 5%
  Pruritus, CTCAE grade 1, patients: 5
  Pruritus, CTCAE grade 2, patients: 0
  Pruritus, CTCAE grade 3, patients: 1
  Pruritus, CTCAE grade 4, patients: 0
  Pruritus, patients with events, %: 27%
  Pulmonary embolism, CTCAE grade 1, patients: 0
  Pulmonary embolism, CTCAE grade 2, patients: 0
  Pulmonary embolism, CTCAE grade 4, patients: 0
  Pyrexia, CTCAE grade 1, patients: 4
  Pyrexia, CTCAE grade 2, patients: 2
  Pyrexia, CTCAE grade 3, patients: 0
  Pyrexia, CTCAE grade 4, patients: 0
  Pyrexia, patients with events, %: 27%
  Rash, CTCAE grade 1, patients: 9
  Rash, CTCAE grade 2, patients: 1
  Rash, CTCAE grade 3, patients: 2
  Rash, CTCAE grade 4, patients: 0
  Rash, patients with events, %: 55%
  Renal and urinary disorders, patients with events, %: 23%
  Respiratory, thoracic and mediastinal disorders, patients with events, %: 73%
  SAEs considered disease-related: 13
  SAEs reported, total number: 19
  Skin and subcutaneous tissue disorders, patients with events, %: 100%
  Spinal cord compression, CTCAE grade 1, patients: 0
  Spinal cord compression, CTCAE grade 2, patients: 0
  Spinal cord compression, CTCAE grade 3, patients: 1
  Spinal cord compression, CTCAE grade 4, patients: 0
  Spinal cord compression, patients with events, %: 5%
  Tumour pain, CTCAE grade 1, patients: 0
  Tumour pain, CTCAE grade 2, patients: 1
  Tumour pain, CTCAE grade 3, patients: 2
  Tumour pain, CTCAE grade 4, patients: 0
  Tumour pain, patients with events, %: 14%
  Urinary tract infection, CTCAE grade 1, patients: 0
  Urinary tract infection, CTCAE grade 2, patients: 1
  Urinary tract infection, CTCAE grade 3, patients: 1
  Urinary tract infection, CTCAE grade 4, patients: 0
  Urinary tract infection, patients with events, %: 9%
  Vomiting, CTCAE grade 1, patients: 3
  Vomiting, CTCAE grade 2, patients: 2
  Vomiting, CTCAE grade 3, patients: 0
  Vomiting, CTCAE grade 4, patients: 0
  Vomiting, patients with events, %: 23%
  drug-related adverse event: alopecia: 95%
  drug-related adverse event: fatigue: 95%
  drug-related adverse event: peripheral sensory neuropathy: 59%
  drug-related adverse event: rash: 55%
  incidence and severity of neutropenia/leukopenia, anaemia, myalgia and nausea/vomiting: not increased relative to paclitaxel alone
  nadir of median haemoglobin, WBC, neutrophils and lymphocytes in each cycle: 15 days
  nadir of median platelets in each cycle: 8 days
  patients with SAEs: 12
  γ-glutamyltransferase increased, CTCAE grade 1, patients: 0
  γ-glutamyltransferase increased, CTCAE grade 2, patients: 1
  γ-glutamyltransferase increased, CTCAE grade 3, patients: 1
  γ-glutamyltransferase increased, CTCAE grade 4, patients: 0
  γ-glutamyltransferase increased, patients with events, %: 9%
21 days
  Alanine aminotransferase increased, CTCAE grade 1, patients: 1
  Alanine aminotransferase increased, CTCAE grade 2, patients: 2
  Alanine aminotransferase increased, CTCAE grade 3, patients: 0
  Alanine aminotransferase increased, CTCAE grade 4, patients: 0
  Alanine aminotransferase increased, patients with events, %: 14%
  Alopecia, CTCAE grade 2, patients: 8
  Alopecia, CTCAE grade 3, patients: 0
  Alopecia, CTCAE grade 4, patients: 0
  Alopecia, patients with events, %: 68%
  Anorexia, CTCAE grade 1, patients: 4
  Anorexia, CTCAE grade 2, patients: 0
  Anorexia, CTCAE grade 3, patients: 0
  Anorexia, CTCAE grade 4, patients: 0
  Anorexia, patients with events, %: 18%
  Arthralgia, CTCAE grade 1, patients: 5
  Arthralgia, CTCAE grade 2, patients: 0
  Arthralgia, CTCAE grade 3, patients: 0
  Arthralgia, CTCAE grade 4, patients: 0
  Arthralgia, patients with events, %: 23%
  Back pain, CTCAE grade 1, patients: 2
  Back pain, CTCAE grade 2, patients: 0
  Back pain, CTCAE grade 3, patients: 0
  Back pain, CTCAE grade 4, patients: 0
  Back pain, patients with events, %: 9%
  Blood bilirubin, CTCAE grade 1, patients: 0
  Blood bilirubin, CTCAE grade 2, patients: 0
  Blood bilirubin, CTCAE grade 3, patients: 0
  Blood bilirubin, CTCAE grade 4, patients: 0
  Blood bilirubin, patients with events, %: 0%
  Bronchitis, CTCAE grade 1, patients: 0
  Bronchitis, CTCAE grade 2, patients: 0
  Bronchitis, CTCAE grade 3, patients: 0
  Bronchitis, CTCAE grade 4, patients: 0
  Bronchitis, patients with events, %: 0%
  Constipation, CTCAE grade 1, patients: 3
  Constipation, CTCAE grade 2, patients: 1
  Constipation, CTCAE grade 3, patients: 0
  Constipation, CTCAE grade 4, patients: 0
  Constipation, patients with events, %: 18%
  Cough, CTCAE grade 1, patients: 5
  Cough, CTCAE grade 2, patients: 0
  Cough, CTCAE grade 3, patients: 0
  Cough, CTCAE grade 4, patients: 0
  Cough, patients with events, %: 23%
  Cystitis, CTCAE grade 1, patients: 0
  Cystitis, CTCAE grade 2, patients: 0
  Cystitis, CTCAE grade 3, patients: 0
  Cystitis, CTCAE grade 4, patients: 0
  Cystitis, patients with events, %: 0%
  Dehydration, CTCAE grade 1, patients: 0
  Dehydration, CTCAE grade 2, patients: 0
  Dehydration, CTCAE grade 3, patients: 1
  Dehydration, CTCAE grade 4, patients: 0
  Dehydration, patients with events, %: 5%
  Diabetes mellitus, CTCAE grade 1, patients: 0
  Diabetes mellitus, CTCAE grade 2, patients: 0
  Diabetes mellitus, CTCAE grade 3, patients: 1
  Diabetes mellitus, CTCAE grade 4, patients: 0
  Diabetes mellitus, patients with events, %: 5%
  Diarrhoea, CTCAE grade 1, patients: 2
  Diarrhoea, CTCAE grade 2, patients: 0
  Diarrhoea, CTCAE grade 3, patients: 0
  Diarrhoea, CTCAE grade 4, patients: 0
  Diarrhoea, patients with events, %: 9%
  Dizziness, CTCAE grade 1, patients: 4
  Dizziness, CTCAE grade 2, patients: 1
  Dizziness, CTCAE grade 3, patients: 0
  Dizziness, CTCAE grade 4, patients: 0
  Dizziness, patients with events, %: 23%
  Drug hypersensitivity, CTCAE grade 1, patients: 0
  Drug hypersensitivity, CTCAE grade 2, patients: 0
  Drug hypersensitivity, CTCAE grade 3, patients: 0
  Drug hypersensitivity, CTCAE grade 4, patients: 0
  Drug hypersensitivity, patients with events, %: 0%
  Dry skin, CTCAE grade 1, patients: 0
  Dry skin, CTCAE grade 2, patients: 0
  Dry skin, CTCAE grade 3, patients: 1
  Dry skin, CTCAE grade 4, patients: 0
  Dry skin, patients with events, %: 5%
